# Assay results from ChEMBL document CHEMBL1123642, “Design and synthesis of phosphonate inhibitors of glutamine synthetase” (J Med Chem, 1987).
# Experiments:
# [1] = biological target: glutamine synthetase (Escherichia coli) (UniProt P0A9C5); assay: Tested for the inhibition of Glutamine synthetase (Escherichia coli) activity using Gamma-glutamyl transferase assay [[…] (pH 7), 5 mM MgCl2] at a concentration of 10.0 mM
# [2] = biological target: glutamine synthetase (Escherichia coli) (UniProt P0A9C5); assay: Tested for the inhibition of Glutamine synthetase (Escherichia coli) activity using biosynthetic assay [[…] (pH 7), 5 mM MgCl2] at a concentration of 10.0 mM
# [3] = test system: glutamine synthetase (Pisum sativum); assay: Tested for the inhibition of Glutamine synthetase (Pea seed) activity using biosynthetic assay [[…] (pH 7), 5 mM MgCl2] at a concentration of 1.0 mM; conditions: Lathyrus oleraceus
# [4] = biological target: glutamine synthetase (Escherichia coli) (UniProt P0A9C5); assay: Tested for the inhibition of Glutamine synthetase (Escherichia coli) activity using Gamma-glutamyl transferase assay [[…] (pH 7), 5 mM MgCl2] at a concentration of 1.0 mM
# [5] = test system: glutamine synthetase (Pisum sativum); assay: Tested for the inhibition of Glutamine synthetase (Pea seed) activity using biosynthetic assay [[…] (pH 7), 5 mM MgCl2] at a concentration of 0.1 mM; conditions: Lathyrus oleraceus
# [6] = test system: glutamine synthetase (Pisum sativum); assay: Tested for the inhibition of Glutamine synthetase (Pea seed) activity using biosynthetic assay [[…] (pH 7), 5 mM MgCl2] at a concentration of 10.0 mM; conditions: Lathyrus oleraceus
# [7] = test system: glutamine synthetase (Pisum sativum); assay: Tested for the inhibition of Glutamine synthetase (Pea seed) activity using Gamma-glutamyl transferase assay [[…] (pH 7), 5 mM MgCl2] at a concentration of 0.1 mM; conditions: Lathyrus oleraceus
# [8] = biological target: glutamine synthetase (Escherichia coli) (UniProt P0A9C5); assay: Tested for the inhibition of Glutamine synthetase (Escherichia coli) activity using Gamma-glutamyl transferase assay [[…] (pH 7), 5 mM MgCl2] at a concentration of 0.1 mM
# [9] = biological target: glutamine synthetase (Escherichia coli) (UniProt P0A9C5); assay: Tested for the inhibition of Glutamine synthetase (Escherichia coli) activity using biosynthetic assay [[…] (pH 7), 5 mM MgCl2] at a concentration of 1.0 mM
# [10] = test system: glutamine synthetase (Ovis aries); assay: Tested for the inhibition of Glutamine synthetase (Ovine brain) activity using biosynthetic assay [[…] (pH 7), 5 mM MgCl2] at a concentration of 10.0 mM
# [11] = test system: glutamine synthetase (Ovis aries); assay: Tested for the inhibition of Glutamine synthetase (Ovine brain) activity using Gamma-glutamyl transferase assay [[…] (pH 7), 5 mM MgCl2] at a concentration of 10.0 mM
# [12] = test system: glutamine synthetase (Ovis aries); assay: Tested for the inhibition of Glutamine synthetase (Ovine brain) activity using Gamma-glutamyl transferase assay [[…] (pH 7), 5 mM MgCl2] at a concentration of 1.0 mM
# [13] = test system: glutamine synthetase (Ovis aries); assay: Tested for the inhibition of Glutamine synthetase (Ovine brain) activity using biosynthetic assay [[…] (pH 7), 5 mM MgCl2] at a concentration of 1.0 mM
# [14] = biological target: glutamine synthetase (Escherichia coli) (UniProt P0A9C5); assay: Tested for the inhibition of Glutamine synthetase (Escherichia coli) activity using biosynthetic assay [[…] (pH 7), 5 mM MgCl2] at a concentration of 0.1 mM
# [15] = test system: glutamine synthetase (Pisum sativum); assay: Tested for the inhibition of Glutamine synthetase (Pea seed) activity using Gamma-glutamyl transferase assay [[…] (pH 7), 5 mM MgCl2] at a concentration of 1.0 mM; conditions: Lathyrus oleraceus
# [16] = test system: glutamine synthetase (Ovis aries); assay: Tested for the inhibition of Glutamine synthetase (Ovine brain) activity using Gamma-glutamyl transferase assay [[…] (pH 7), 5 mM MgCl2] at a concentration of 0.1 mM
# [17] = test system: glutamine synthetase (Ovis aries); assay: Tested for the inhibition of Glutamine synthetase (Ovine brain) activity using biosynthetic assay [[…] (pH 7), 5 mM MgCl2] at a concentration of 0.1 mM
# [18] = test system: glutamine synthetase (Pisum sativum); assay: Tested for the inhibition of Glutamine synthetase (Pea seed) activity using Gamma-glutamyl transferase assay [[…] (pH 7), 5 mM MgCl2] at a concentration of 10.0 mM; conditions: Lathyrus oleraceus
# [19] = test system: glutamine synthetase (Pisum sativum); assay: Tested for the inhibition of Glutamine synthetase(Pea seed) activity using Gamma-glutamyl transferase assay [[…] (pH 7), 5 mM MgCl2] at a concentration of 10.0 mM; conditions: Lathyrus oleraceus
# [20] = biological target: glutamine synthetase (Escherichia coli) (UniProt P0A9C5); assay: Tested for the inhibition of Glutamine synthetase (Escherichia coli) activity using biosynthetic assay [[…] (pH 7), 5 mM MgCl2] at a concentration of 0 mM
# [21] = biological target: glutamine synthetase (Escherichia coli) (UniProt P0A9C5); assay: Tested for the inhibition of Glutamine synthetase (Escherichia coli) activity using Gamma-glutamyl transferase assay [[…] (pH 7), 5 mM MgCl2] at a concentration of 0 mM
# [22] = test system: glutamine synthetase (Pisum sativum); assay: Tested for the inhibition of Glutamine synthetase (Pea seed) activity using Gamma-glutamyl transferase assay [[…] (pH 7), 5 mM MgCl2] at a concentration of 0 mM; conditions: Lathyrus oleraceus
# [23] = test system: glutamine synthetase (Ovis aries); assay: Tested for the inhibition of Glutamine synthetase (Ovine brain) activity using Gamma-glutamyl transferase assay [[…] (pH 7), 5 mM MgCl2] at a concentration of 0 mM
# [24] = test system: glutamine synthetase (Pisum sativum); assay: Tested for the inhibition of Glutamine synthetase (Pea seed) activity using biosynthetic assay [[…] (pH 7), 5 mM MgCl2] at a concentration of 0 mM; conditions: Lathyrus oleraceus
# [25] = test system: glutamine synthetase (Ovis aries); assay: Tested for the inhibition of Glutamine synthetase (Ovine brain) activity using biosynthetic assay [[…] (pH 7), 5 mM MgCl2] at a concentration of 0 mM
# Chain of glutamine synthetase (Escherichia coli) (P0A9C5 whole entry, looked up): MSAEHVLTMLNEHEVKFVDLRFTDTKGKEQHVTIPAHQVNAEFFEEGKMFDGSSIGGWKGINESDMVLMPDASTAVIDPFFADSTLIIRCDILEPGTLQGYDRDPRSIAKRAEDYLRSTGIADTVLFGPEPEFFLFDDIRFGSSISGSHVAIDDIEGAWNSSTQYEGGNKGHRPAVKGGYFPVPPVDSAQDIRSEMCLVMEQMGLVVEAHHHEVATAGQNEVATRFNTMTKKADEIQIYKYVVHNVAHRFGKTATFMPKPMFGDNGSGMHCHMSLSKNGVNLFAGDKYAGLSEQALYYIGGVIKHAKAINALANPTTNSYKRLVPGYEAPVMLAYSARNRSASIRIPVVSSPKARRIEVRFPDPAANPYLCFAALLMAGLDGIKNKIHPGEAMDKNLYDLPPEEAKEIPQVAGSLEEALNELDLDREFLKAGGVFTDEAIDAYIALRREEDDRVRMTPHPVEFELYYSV
Relative activity [1],Relative activity [2],Relative activity [3],Relative activity [4],Relative activity [5],Relative activity [6],Relative activity [7],Relative activity [8],Relative activity [9],Relative activity [10],Relative activity [11],Relative activity [12],Relative activity [13],Relative activity [14],Relative activity [15],Relative activity [16],Relative activity [17],Relative activity [18],also measured,SMILES
1.5,0.95,1.1,1,1.1,0.75,0.9,1,1.2,1,1.2,1,1.2,1.2,0.9,1,1.2,1,–,CC(N)(CC[S+]([O-])CP(=O)(O)O)C(=O)O (stereo not given)
1,1,0.8,1.1,1.1,0.85,0.8,1.1,1,1,0.8,0.9,1,1.1,0.9,0.95,1.2,–,Relative activity [19]: 0.9,CC(N)(CCS(=O)(=O)CP(=O)(O)O)C(=O)O (stereo not given)
1.5,1.25,1.2,1.4,1,0.5,1,1.1,1.95,1.2,1.1,1,1,1,1,1,1,1,Relative activity [20]: 1; Relative activity [21]: 1; Relative activity [22]: 1; Relative activity [23]: 1; Relative activity [24]: 1; Relative activity [25]: 1,CC(N)(CCSCP(=O)(O)O)C(=O)O (stereo not given)
